Source: patent publication US6211375A, “Pyridonecarboxylic acid derivatives or salts thereof and antibacterial agents containing the same as the active ingredient” (Wakunaga Pharmaceutical Co., Ltd., priority 1996, dated 2001)
≈ marks a conversion by molar mass, not a printed value. Read-outs that look alike come from different tables or passages of the source. Each block holds one compound with its values, some of them ahead of it.

How the values were obtained:
S.aureus 209P = assay: Antibacterial Activity, minimum growth inhibitory concentration (MIC), S.aureus 209P; type: cell-based; conditions: Staphylococcus aureus, standard method of Japan Chemotherapy Society
Method: (§1) Minimum growth inhibitory concentration (MIC, μg/ml) was evaluated in accordance with the standard method of Japan Chemotherapy Society (Chemotherapy 29(1), 76, 1981). It should be noted that tosufloxacin was also evaluated for its minimum growth inhibitory concentration for the purpose of comparison.

P. aeruginosa IFO3445 = assay: Antibacterial Activity, minimum growth inhibitory concentration (MIC), P. aeruginosa IFO3445; type: cell-based; conditions: Pseudomonas aeruginosa, standard method of Japan Chemotherapy Society
Method: as §1

ears = assay: Phototoxicity Test (abnormality in the ears of mice after UVA irradiation); type: in vivo, Female ICR mice; conditions: 40 mg/kg i.v., UVA 320 to 400 nm, 4 hours; for ear abnormality, point: 0 = no abnormality, 1 = very slight erythema, 2 = well defined erythema, 3 = moderate to severe erythema or edema
Method: Female ICR mice (5 to 6 week old) were intravenously administered with the test compound (40 mg/kg/10 ml), and irradiated with UVA (320 to 400 nm, 1.8 mW/cm^2 /sec) for 4 hours. Abnormality in the ears was monitored at 0 hour immediately after the irradiation and after 24 hours. The ear abnormality was evaluated by the following criteria: no abnormality (0 point), very slight erythema (1 point), well defined erythema (2 points), moderate to severe erythema or edema formation (3 points). Tosufloxacin which is a conventional known antibacterial agent was also tested in a similar way for the purpose of comparison.

[1] = Absorption and Excretion (urine and bile recovery rates after oral administration); type: in vivo, Male SD rats; conditions: rat, 20 mg/kg, rats, oral 20 mg/10 ml/kg
Method: A compound of the present invention was measured for its urine and bile recovery rates in rats after its oral administration to evaluate absorption and excretion of the compounds.
Male SD rats of 6 week old which had been fasted overnight were administered orally with 0.5% methylcellulose suspension of the test compounds (20 mg/10 ml/kg). The urine collection was continued until 24 hours after the administration. The concentration of the test compound in the urine was measured by paper disc method using Bacillus subtilis ATCC6633 for the test bacterium to determine the urine recovery rate.
Into choledoch duct of male SD rats of 6 week old which had been fasted overnight was inserted a polyethylene tube under etherization. After arousing, the rats were forcedly administered orally with the test compounds as in the case of the above (1), and bile collection was continued until 24 hours after the administration. The bile with no further treatment and the bile alkaline hydrolyzed (with 0.1N NaOH, 37° C., 1 hour) were measured for their concentration of the test compound by the same procedure as in the case of the above (1) to determine the bile recovery rate.

Compound: Cc1c(N2CC(C)(N)C2)c(F)cc2c(=O)c(C(=O)O)cn(-c3cc(N)c(F)cc3F)c12 [Compound of Ex. 3, 7-(3-amino-3-methylazetidin-1-yl)-1-(3-amino-4,6-difluorophenyl)-6-fluoro-8-methyl-1,4-dihydro-4-oxoguinoline-3-carboxylic Acid]
- MIC (S.aureus 209P): 0.006 µg/mL (≈ 0.0139 µM)
- MIC (P. aeruginosa IFO3445): 0.1 µg/mL (≈ 0.231 µM)
- ear abnormality, occurrence (ears; 0 hour after irradiation): 0/3
- ear abnormality, point (ears; 0 hour after irradiation): 0 point
- ear abnormality, occurrence (ears; 24 hours after irradiation): 0/3
- ear abnormality, point (ears; 24 hours after irradiation): 0 point
- dose excreted at 24 h ([1]; bile, 0-24 hours, bile after alkaline hydrolysis (0.1N NaOH, 37° C., 1 hour), read-out: Recovery rate (24 hours), Bile*): 26.7%
- dose excreted at 24 h ([1]; bile, 0-24 hours, bile with no further treatment, read-out: Recovery rate (24 hours), Bile): 10.4%
- dose excreted at 24 h ([1]; urine and bile, 24 hours, total recovery rate, read-out: Recovery rate (24 hours), Total recovery rate): 30.6%
- dose excreted at 24 h ([1]; urine, 0-24 hours, paper disc method with Bacillus subtilis ATCC6633, read-out: Recovery rate (24 hours), Urine): 3.9%

Compound: Cc1cc(F)c(N)cc1-n1cc(C(=O)O)c(=O)c2cc(F)c(N3CC(C)(N)C3)c(C)c21 [Compound of Ex. 5, 7-(3-amino-3-methylazetidin-l-yl)-1-(3-amino-4-fluoro-6-methylphenyl)-6-fluoro-8-methyl-1,4-dihydro-4-oxoguinoline-3-carboxylic Acid]
- MIC (S.aureus 209P): 0.013 µg/mL (≈ 0.0303 µM)
- MIC (P. aeruginosa IFO3445): 0.2 µg/mL (≈ 0.467 µM)
- ear abnormality, occurrence (ears; 0 hour after irradiation): 0/3
- ear abnormality, point (ears; 0 hour after irradiation): 0 point
- ear abnormality, occurrence (ears; 24 hours after irradiation): 0/3
- ear abnormality, point (ears; 24 hours after irradiation): 0 point

Compound: CNC1CN(c2c(F)cc3c(=O)c(C(=O)O)cn(-c4cc(N)c(F)cc4C)c3c2C)C1 [Compound of Ex. 6, 1-(3-amino-4-fluoro-6-methylphenyl)-6-fluoro-8-methyl-7-(3-methylaminoazetidin-1-yl)-1,4-dihydro-4-oxoguinoline-3-carboxylic Acid]
- MIC (S.aureus 209P): 0.013 µg/mL (≈ 0.0303 µM)
- MIC (P. aeruginosa IFO3445): 0.2 µg/mL (≈ 0.467 µM)
- ear abnormality, occurrence (ears; 0 hour after irradiation): 0/3
- ear abnormality, point (ears; 0 hour after irradiation): 0 point
- ear abnormality, occurrence (ears; 24 hours after irradiation): 0/3
- ear abnormality, point (ears; 24 hours after irradiation): 0 point

Compound: Cc1c(N2CC(N)C2)c(F)cc2c(=O)c(C(=O)O)cn(-c3cc(N)c(F)cc3Cl)c12 [Compound of Ex. 7, 7-(3-aminoazetidin-1-yl)-1-(3-amino-6-chloro-4-fluorophenyl)-6-fluoro-8-methyl-1,4-dihydro-4-oxoguinoline-3-carboxylic Acid]
- MIC (S.aureus 209P): 0.013 µg/mL (≈ 0.0299 µM)
- MIC (P. aeruginosa IFO3445): 0.1 µg/mL (≈ 0.23 µM)
- ear abnormality, occurrence (ears; 0 hour after irradiation): 0/3
- ear abnormality, point (ears; 0 hour after irradiation): 0 point
- ear abnormality, occurrence (ears; 24 hours after irradiation): 0/3
- ear abnormality, point (ears; 24 hours after irradiation): 0 point

Compound: Cc1c(N2CC(O)C2)c(F)cc2c(=O)c(C(=O)O)cn(-c3cc(N)c(F)cc3F)c12 [Compound of Ex. 8, 1-(3-amino-4,6-difluorophenyl)-6-fluoro-7-(3-hydroxyazetidin-1-yl)-8-methyl-4-oxo-1,4-dihydroquinoline-3-carboxylic Acid]
- MIC (S.aureus 209P): 0.006 µg/mL (≈ 0.0143 µM)
- MIC (P. aeruginosa IFO3445): 0.2 µg/mL (≈ 0.477 µM)
- ear abnormality, occurrence (ears; 0 hour after irradiation): 0/3
- ear abnormality, point (ears; 0 hour after irradiation): 0 point
- ear abnormality, occurrence (ears; 24 hours after irradiation): 0/3
- ear abnormality, point (ears; 24 hours after irradiation): 0 point

Compound: Cc1cc(F)c(N)cc1-n1cc(C(=O)O)c(=O)c2cc(F)c(N3CC(O)C3)c(C)c21 [Compound of Ex. 9, 1-(3-amino-4-fluoro-6-methylphenyl)-6-fluoro-7-(3-hydroxyazetidin-1-yl)-8-methyl-4-oxo-1,4-dihydroquinoline-3-carboxylic Acid]
- MIC (S.aureus 209P): 0.013 µg/mL (≈ 0.0313 µM)
- MIC (P. aeruginosa IFO3445): 0.2 µg/mL (≈ 0.481 µM)
- ear abnormality, occurrence (ears; 0 hour after irradiation): 0/3
- ear abnormality, point (ears; 0 hour after irradiation): 0 point
- ear abnormality, occurrence (ears; 24 hours after irradiation): 0/3
- ear abnormality, point (ears; 24 hours after irradiation): 0 point

Compound: NC1CCN(c2nc3c(cc2F)c(=O)c(C(=O)O)cn3-c2ccc(F)cc2F)C1 (stereo not shown) [Tosufloxacin, reference compound]
- MIC (S.aureus 209P): 0.05 µg/mL (≈ 0.124 µM)
- MIC (P. aeruginosa IFO3445): 0.39 µg/mL (≈ 0.965 µM)
- ear abnormality, occurrence (ears; 0 hour after irradiation): 4/5
- ear abnormality, point (ears; 0 hour after irradiation): 1.8 point
- ear abnormality, occurrence (ears; 24 hours after irradiation): 4/5
- ear abnormality, point (ears; 24 hours after irradiation): 0.8 point

More lines, main results first:

- MIC (S.aureus 209P): 0.006 µg/mL (≈ 0.0143 µM)
- MIC (P. aeruginosa IFO3445): 0.05 µg/mL (≈ 0.12 µM)
Compound: Cc1c(N2CC(N)C2)c(F)cc2c(=O)c(C(=O)O)cn(-c3cc(N)c(F)cc3F)c12 [Compound of Ex. 1, 7-(3-aminoazetidin-1-yl)-1-(3-amino-4,6-difluorophenyl)-6-fluoro-8-methyl-1,4-dihydro-4-oxoguinoline-3-carboxylic Acid]
- ear abnormality, occurrence (ears; 0 hour after irradiation): 0/3
- ear abnormality, point (ears; 0 hour after irradiation): 0 point
- ear abnormality, occurrence (ears; 24 hours after irradiation): 0/3
- ear abnormality, point (ears; 24 hours after irradiation): 0 point

- MIC (S.aureus 209P): 0.006 µg/mL (≈ 0.0139 µM)
- MIC (P. aeruginosa IFO3445): 0.1 µg/mL (≈ 0.231 µM)
Compound: CNC1CN(c2c(F)cc3c(=O)c(C(=O)O)cn(-c4cc(N)c(F)cc4F)c3c2C)C1 [Compound of Ex. 2, 1-(3-amino-4,6-difluorophenyl)-6-fluoro-8-methyl-7-(3-methylaminoazetidin-1-yl)-1,4-dihydro-4-oxoguinoline-3-carboxylic Acid]
- ear abnormality, occurrence (ears; 0 hour after irradiation): 0/3
- ear abnormality, point (ears; 0 hour after irradiation): 0 point
- ear abnormality, occurrence (ears; 24 hours after irradiation): 0/3
- ear abnormality, point (ears; 24 hours after irradiation): 0 point

- MIC (S.aureus 209P): 0.003 µg/mL (≈ 0.00724 µM)
- MIC (P. aeruginosa IFO3445): 0.1 µg/mL (≈ 0.241 µM)
Compound: Cc1cc(F)c(N)cc1-n1cc(C(=O)O)c(=O)c2cc(F)c(N3CC(N)C3)c(C)c21 [Compound of Ex. 4, 7-(3-aminoazetidin-1-yl)-1-(3-amino-4-fluoro-6-methylphenyl)-6-fluoro-8-methyl-1,4-dihydro-4-oxoguinoline-3-carboxylic Acid]
- ear abnormality, occurrence (ears; 0 hour after irradiation): 0/3
- ear abnormality, point (ears; 0 hour after irradiation): 0 point
- ear abnormality, occurrence (ears; 24 hours after irradiation): 0/3
- ear abnormality, point (ears; 24 hours after irradiation): 0 point

- MIC (S.aureus 209P): 0.003 µg/mL (≈ 0.00694 µM)
- MIC (P. aeruginosa IFO3445): 0.1 µg/mL (≈ 0.231 µM)
Compound: Cc1c(F)c(N2CC(N)C2)c(C)c2c1c(=O)c(C(=O)O)cn2-c1cc(N)c(F)cc1F [Compound of Ex. 10, 7-(3-aminoazetidin-1-yl)-1-(3-amino-4,6-difluorophenyl)-6-fluoro-5,8-dimethyl-4-oxo-1,4-dihydroquinoline-3-carboxylic Acid]
- ear abnormality, occurrence (ears; 0 hour after irradiation): 0/3
- ear abnormality, point (ears; 0 hour after irradiation): 0 point
- ear abnormality, occurrence (ears; 24 hours after irradiation): 0/3
- ear abnormality, point (ears; 24 hours after irradiation): 0 point
